Measurements reported in publication PMC5693770 (Cell chemical biology, 2017).
Values belong to the molecule of their own block, whether it stands above or below them.

Experiments:
SCP2 = target: T1, SCP2 (Homo sapiens, UniProt P22307); experiment: in situ competitive isoTOP-ABPP in […]MFP cells, light to heavy ratio […]; type: cell-based
T1 sequence (P22307 1-547): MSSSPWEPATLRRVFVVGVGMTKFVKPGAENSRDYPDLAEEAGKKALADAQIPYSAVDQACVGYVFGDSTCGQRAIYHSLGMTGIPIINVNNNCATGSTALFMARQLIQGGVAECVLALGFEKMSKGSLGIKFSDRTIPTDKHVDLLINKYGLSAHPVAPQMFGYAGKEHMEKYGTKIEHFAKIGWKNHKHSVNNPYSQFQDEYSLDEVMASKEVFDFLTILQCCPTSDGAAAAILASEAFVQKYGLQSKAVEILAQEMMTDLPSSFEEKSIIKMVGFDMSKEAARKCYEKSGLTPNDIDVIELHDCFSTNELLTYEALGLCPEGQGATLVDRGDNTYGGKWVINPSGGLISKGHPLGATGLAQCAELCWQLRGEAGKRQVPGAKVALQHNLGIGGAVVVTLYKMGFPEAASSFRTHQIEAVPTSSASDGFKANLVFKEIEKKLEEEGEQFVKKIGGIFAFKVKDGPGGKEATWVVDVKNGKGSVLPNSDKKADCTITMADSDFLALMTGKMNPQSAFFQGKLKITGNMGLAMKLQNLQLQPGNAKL

ACAT1 = target: T2, ACAT1 (Homo sapiens, UniProt P24752); experiment: as above; type: cell-based
T2 sequence (P24752 34-427): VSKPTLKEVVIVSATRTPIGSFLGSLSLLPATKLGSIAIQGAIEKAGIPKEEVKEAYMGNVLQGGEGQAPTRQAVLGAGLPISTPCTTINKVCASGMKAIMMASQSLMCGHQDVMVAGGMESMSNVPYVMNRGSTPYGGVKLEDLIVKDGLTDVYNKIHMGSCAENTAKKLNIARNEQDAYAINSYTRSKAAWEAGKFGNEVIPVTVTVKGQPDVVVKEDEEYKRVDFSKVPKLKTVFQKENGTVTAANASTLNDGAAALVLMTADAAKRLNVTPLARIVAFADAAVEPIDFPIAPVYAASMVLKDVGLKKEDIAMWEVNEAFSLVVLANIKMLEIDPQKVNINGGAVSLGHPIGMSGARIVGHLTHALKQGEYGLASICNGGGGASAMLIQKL

PPP2R1A [1] = target: T3, PPP2R1A (Homo sapiens, UniProt P30153); experiment: gel-based ABPP, competition with IAyne labeling of pure protein; type: binding
CLIC4 = CLIC4 (Homo sapiens, UniProt Q9Y696); experiment: in situ competitive isoTOP-ABPP in […]MFP cells, light to heavy ratio […]; type: cell-based
TXNDC17 = target: T4, TXNDC17 (Homo sapiens, UniProt Q9BRA2); experiment: as above; type: cell-based
T4 sequence (Q9BRA2 2-123): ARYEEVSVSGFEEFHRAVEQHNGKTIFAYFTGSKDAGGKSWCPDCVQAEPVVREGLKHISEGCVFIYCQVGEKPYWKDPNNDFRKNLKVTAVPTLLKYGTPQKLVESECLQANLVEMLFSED

PPP2R1A [2] = target: T3, PPP2R1A; experiment: gel-based ABPP, competition with IAyne labeling; type: binding
PPP2R1A [3] = target: T3, PPP2R1A; experiment: gel-based ABPP, competition with IAyne labeling of pure protein; type: binding; remark: listed apart in the source

T3 sequence (P30153 2-589): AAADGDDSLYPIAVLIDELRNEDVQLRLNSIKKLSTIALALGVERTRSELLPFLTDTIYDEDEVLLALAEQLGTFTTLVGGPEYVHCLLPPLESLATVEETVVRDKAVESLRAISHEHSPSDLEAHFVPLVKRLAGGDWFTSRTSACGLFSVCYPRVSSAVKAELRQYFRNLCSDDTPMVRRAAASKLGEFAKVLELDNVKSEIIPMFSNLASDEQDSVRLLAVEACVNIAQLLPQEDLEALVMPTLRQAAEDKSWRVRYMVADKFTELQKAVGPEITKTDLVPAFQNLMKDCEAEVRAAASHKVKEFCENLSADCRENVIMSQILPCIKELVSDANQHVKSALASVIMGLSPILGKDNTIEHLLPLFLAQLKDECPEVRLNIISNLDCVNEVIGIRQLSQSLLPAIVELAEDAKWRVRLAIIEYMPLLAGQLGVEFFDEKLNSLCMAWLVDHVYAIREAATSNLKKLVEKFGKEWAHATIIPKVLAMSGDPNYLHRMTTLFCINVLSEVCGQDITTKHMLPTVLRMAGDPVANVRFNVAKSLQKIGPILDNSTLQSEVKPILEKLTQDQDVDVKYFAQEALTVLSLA
Sequence of CLIC4 (Q9Y696 2-253): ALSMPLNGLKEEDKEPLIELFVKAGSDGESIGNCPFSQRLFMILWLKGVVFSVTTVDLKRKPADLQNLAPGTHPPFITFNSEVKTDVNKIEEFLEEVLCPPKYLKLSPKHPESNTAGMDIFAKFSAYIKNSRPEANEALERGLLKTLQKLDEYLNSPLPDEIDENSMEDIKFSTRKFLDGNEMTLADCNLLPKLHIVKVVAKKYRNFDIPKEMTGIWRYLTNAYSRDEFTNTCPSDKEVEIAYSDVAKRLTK

in situ competitive isoTOP-ABPP in 231MFP cells, light to heavy ratio >5 (SCP2): > 5 light to heavy ratio
in situ competitive isoTOP-ABPP in 231MFP cells, light to heavy ratio >5 (ACAT1): > 5 light to heavy ratio
IC50 (PPP2R1A [1]): 10 µM
in situ competitive isoTOP-ABPP in 231MFP cells, light to heavy ratio >5 (CLIC4): > 5 light to heavy ratio
in situ competitive isoTOP-ABPP in 231MFP cells, light to heavy ratio >5 (TXNDC17): > 5 light to heavy ratio
Molecule: DKM 2-90

IC50 (PPP2R1A [2]): 300 µM
Molecule: O=C(CCl)Nc1ccc2c(c1)CCCC2 [JNS 1-37]

IC50 (PPP2R1A [3]): 0.63 µM
Molecule: O=C(CCl)N(Cc1ccccc1)c1ccc2c(c1)OCCO2 [JNS 1-40]
